The record followed here is patent US20050239767A1, “Intermolecular SNAr of the heterocycle-activated nitro and fluoro groups-application in the synthesis of polyazamacrocyclic ligands” (priority 2003, published 2005).

Test system in one data set: not given
Assay: not given
Settings: not given
Molecule `Cc1ccc(S(=O)(=O)OCC2Cn3c(nc4c(C)cccc43)-c3cccc(Cl)c3O2)cc1` (centres unmarked) had a melting point of 168 to 169 °C.
`CC(C)(C)C1Cn2c(nc3c(C4OCCO4)cccc32)-c2ccccc2O1` (centres unmarked) showed a melting point of 200 to 201 °C.
As to `Cc1cccc2c1nc1n2CC(C(C)(C)C)Oc2c(Cl)cccc2-1` (centres unmarked), the melting point was in the range of 191 to 192 °C.
The molecule `OCC1Cn2c(nc3ccccc32)-c2ccccc2O1` (centres unmarked) had a melting point of 142 to 143.5 °C.
With `Cc1cccc2c1nc1n2CC(CO)Oc2c(Cl)cccc2-1` (centres unmarked), the melting point is 186.5 to 188 °C.
On the same count and under the same terms, the same measure for `CC(C)(C)C1Cn2c(nc3ccccc32)-c2ccccc2O1` (centres unmarked): 149 to 150 °C; for `Cc1ccc(S(=O)(=O)OCC2Cn3c(nc4ccccc43)-c3ccccc3O2)cc1` (centres unmarked): 165.5 to 166.5 °C.

The next data set concerns HIV-1. The data set can be described thus: NCI in vitro anti-HIV drug screening test (protection of T4 lymphocytes from HIV cytolysis, XTT readout). Type of data set: cell-based. As to conditions: T4 lymphocytes (CEM cell line) infected with HIV-1, 6 days, XTT formazan; numerical EC50/IC50/TI only in FIGS. 1-4. Here is the method:
The procedure used in the NCI's test for agents active against HIV is designed to detect agents acting at any stage of the virus reproductive cycle. The assay basically involves the killing of T4 lymphocytes by HIV. Small amounts of HIV are added to cells, and two cycles of virus reproduction are necessary to obtain the required cell killing. Agents that interact with virions, cells, or virus gene-products to interfere with vital activities will protect cells from cytolysis. All tests are done with at least one positive (e.g., AZT-treated) control done at the same time under identical conditions. The procedure is as follows:
Candidate agent was dissolved in dimethyl sulfoxide then diluted 1:100 in cell culture medium before preparing serial half-log10 dilutions. […]
Individual wells were analyzed spectrophotometrically to quantitate formazan production, and in addition were viewed microscopically for detection of viable cells and confirmation of protective activity. […]
The figures display a plot of the log10 of the sample's concentrations (as μg/mL or M) against the measured test values expressed as a percentage of the uninfected, untreated control values. […] The percent protection has been calculated from the data and is presented on the left side of the graph. […]
Consider `C[C@H]1Cn2c(nc3c(C4OCCO4)cccc32)-c2c(cccc2[N+](=O)[O-])O1`, for which the “activity against HIV” value is listed as “confirmed active”.

The term melting point denotes the temperature, or range, at which the solid turns liquid.
